Series [1] in a line: Bioavailability study after liquid dose of radiolabeled DTPA (14C) in male Sprague-Dawley rats (SRI Study B230-06). The class given is in vivo. The procedure: The objective of this study was to determine the oral bioavailability of Ca-DTPA using radioactive ^14C-DTPA tracer for detection in male Sprague Dawley rats after oral administration in several different formulations. After oral gavage of Ca-DTPA or DTPA (free acid) in sterile water, the oral bioavailability of DTPA is estimated to be about 7% in these two treatment groups. […] In Group 7, which also was administered DTPA in 20% Labrasol (+Quinidine pretreatment), the mean bioavailability was 10%, but this group had greater interindividual variability than seen in the other treatment groups.

The nature of series [2]: Oral bioavailability of two additional Ca-DTPA formulations in beagle dogs (SRI Study B221B-06).
Procedure: Oral bioavailability is assessed using the Beagle dog, or equivalent model, wherein levels of plasma Ca/Zn-DTPA from an orally administered composition are compared to levels obtained after i.v. administration using the calculation: BA=AUCPO×Doseiv/AUCiv×DosePO; where BA=bioavailability and AUC=area under the plasma concentration-time curve.
Two additional oral formulations of Ca-DTPA were studied in male and female beagle dogs to determine the effect of modifications in the formulation on oral bioavailability (SRI Study B221B-06). The dose administered was 10 mg/kg plus ˜100 μCi/kg. One male and one female dog received the drug in a bead formulation that consisted of 42.22% DTPA, 25.33% Labrasol®, 8.44% CAB-O-SIL EH5, 24.0% HPMC K110M, and 17.17% water; the other male and female dog were administered DTPA in a liquid formulation that consisted of 20% Labrasol®. In both dose groups, the formulated drug was added to size “0” capsules, then sealed and stored until administration.
A further series relates to iron-loaded dogs. Put plainly: Excretion of iron after repeat dose administration of DTPA in iron-loaded dogs. Also on record: Excretion of Fe in urine / Excretion of Fe in urine, Total: unit not given here. The following applies: for Excretion of Fe in urine, Total: sum 4 hr to 120 hr; for excretion of Fe after oral DTPA as % of the amount excreted by intravenously treated animals: oral vs IV. It counts as in vivo, beagle dogs. The procedure:
The objective of this study was to evaluate the efficacy of an oral formulation of DTPA to enhance the excretion of iron in urine from iron-loaded dogs. Iron-loaded dogs were used in the study as a surrogate model for contamination by transuranic elements.
Two treatment groups, consisting of one male and one female dog, were compared. Ca-DTPA in sterile saline was administered by the intravenous route, 10 mg/kg, on Day 1, followed by 4 days of treatment with Zn-DTPA (10 mg/kg daily). The oral treatment group was also administered 10 mg/kg in 20% Labrasol® in capsules, with Ca-DTPA on Day 1 and Zn-DTPA on Days 2-5. Blood was collected from each dog at the following time points: predose and 1, 4, 8, and 24 hr after dose administration on Day 1, and at 24 hr postdose on Days 2-5. Dogs were maintained in metabolism cages for the study, and urine was collected at 4, 8, and 24 hr after the Day 1 dose, and every 24 hr after the Day 2-5 doses. Collected samples were analyzed for iron, calcium, and zinc by Perkin-Elmer ICP (Inductively Coupled Plasma) unit.

Series [3] has as its system harvested rat small intestinal segments: Ileum. Put plainly: Ussing chamber mucosal to serosal transport across rat ileum. The class given is in vitro ADME. As to conditions: 5 mg/ml of DTPA in HEPES Buffer. The method, then: (§1) The primary objective of these in vitro studies was to determine a formulation containing permeation enhancers/other additives that achieved maximum transport of DTPA from mucosal to serosal side of the intestine. The mucosal to serosal absorption of DTPA (Zinc/Calcium) was measured in vitro across harvested rat intestinal segments and colon, in an EasyMount Ussing System (Physiological Instruments Inc., CA, Item #EM-CSYS-8). The Ussing chamber consists of two diffusion chambers, a heating block for temperature control, needle valves for gas flow adjustment and gas lift stirring, and Ag/AgCl voltage and current electrodes for measuring transepithelial voltage and for passing current. Representative sections of the harvested rat small intestinal segments (jejunum, duodenum, and ileum) and the rat colon were mounted on sliders placed between the chambers, and DTPA (Zinc/Calcium) transport across the sections was monitored. Aliquots of sample solution were removed from the ‘serosal’ side at 30 min intervals and analyzed by high performance liquid chromatography (HPLC). The change in mucosal to serosal transport of DTPA (Zinc/Calcium) in the presence of different permeation enhancers was determined.
(§2) Zn-DTPA and Ca-DTPA was dissolved in HEPES buffer (VWR, Brisbane, Calif.), with or without additives, at the predetermined drug concentrations. […]

For another series, the system named is rat colon. Put plainly: Ussing chamber mucosal to serosal transport across rat colon. It counts as in vitro ADME. As to conditions: 5 mg/ml of DTPA in HEPES Buffer. The method, then: as §1, §2
Series [4] has as its system harvested rat small intestinal segments: Duodenum. Nature of the series: Ussing chamber mucosal to serosal transport across rat duodenum. It counts as in vitro ADME. As to conditions: 5 mg/ml of DTPA in HEPES Buffer. The method, then: as §1, §2
Series [5] concerns harvested rat small intestinal segments: Jejunum. Nature of the series: Ussing chamber mucosal to serosal transport across rat jejunum. The class given is in vitro ADME. The method, then: as §1
Zn-DTPA and Ca-DTPA was dissolved in HEPES buffer (VWR, Brisbane, Calif.), with or without additives, at the predetermined drug concentrations. HEPES buffer was used as the base mucosal and serosal fluid. Before initiating the experiment, 5 ml of HEPES buffer was added to each of the two chambers (mucosal and serosal) and was allowed to equilibrate for 20 min. Next, the mucosal buffer was replaced by the appropriate formulation to be tested and the experiment was initiated. Aliquots (0.5 ml) were collected from the serosal side and were replaced with an equivalent amount of fresh HEPES buffer (maintained at physiological temperature). The aliquotted samples from the serosal side were analyzed by HPLC.
Owing to the expected variation in the in vitro conditions and harvested rat intestinal segments, five replicates were used per experimental condition. In order to compare data obtained from the different experiments, the apparent permeability coefficients (Papp) were calculated according to:
[formula] Where, dQ/dt is the linear appearance rate of mass in receiver compartment, C0 is the initial solute concentration in donor compartment, and A is the surface area. The higher the Papp value, the better the permeation property. The similarity of the Papp values indicates similar behavior for the two DTPA compounds.
We then evaluated transport of Zn-DTPA and Ca-DTPA through jejunum segments with and without Labrasol.
We then tested the transport of 100 mg/ml DTPA in HEPES buffer with and without added enhancers across jejunum segments; results are in Table 3.

Several values for one entry are separate records, joined by “and”; a condition that tells them apart may be missing. Identical values can stand only once.

`O=C(O)CN(CCN(CC(=O)O)CC(=O)O)CCN(CC(=O)O)CC(=O)O` [free acid DTPA]: the “% Bioavailability Mean ± SD” value in series [1] (Group 3 Oral, water) is recorded as 6.80 ± 1.66%; in series [1] (Group 3 Oral, water, listed as DTPA (free acid)) it was “about 7%”. Besides, in series [1] (Group 3 Oral, water, 16.38 mg-equiv DTPA/Kg, 6 hr), the “AUC0→last Mean ± SD” value is on record as 1.21 ± 0.29 Hr * ( ng/ml). Also, the AUC0→last in series [1] (Group 3 Oral, water, 16.38 mg-equiv DTPA/Kg, last time point 6 hr, individual rats) was 1.4708 Hr * ( ng/ml) and 0.8897 Hr * ( ng/ml) and 1.2594 Hr * ( ng/ml). Further, the “% Bioavailability” value in series [1] (Group 3 Oral, water, individual rats) is 8.29% and 5.02% and 7.10%.

Take `C=C[C@H]1C[N@@]2CC[C@H]1C[C@@H]2[C@@H](O)c1ccnc2ccc(OC)cc12` [quinidine]: the “inhibition of efflux transport of DTPA” value in series [1] (0.15 mM quinidine 20 min before DTPA in 20% Labrasol, inferred from rat #19) is reported as “active in inhibiting efflux transport of DTPA”.

With `O=C(O)CN(CCN(CC(=O)O)CC(=O)O)CCN(CC(=O)O)CC(=O)O` [DTPA], the “% Bioavailability Mean ± SD” value in series [1] (Group 4 Oral, 20% Labrasol) is recorded as around 12%; in series [1] (Group 7 Oral, 0.15 mM Quinidine pretreatment then 20% Labrasol) it was 10%. Moreover, in series [1] (Group 7 Oral, 0.15 mM Quinidine pretreatment then 20% Labrasol, individual rats), the “% Bioavailability” value turned out to be 19%. Further, the “dose excreted in the feces” value in series [2] (by 24 hr, both treatment groups (bead and liquid capsule)) is recorded as 73-74%. In series [2] (by 264 hr after dose administration, oral Labrasol formulations), the “dose recovered in the excreta” value was 95-96%. In addition, the “Excretion of Fe in urine” value with iron-loaded dogs (Dog 1M, IV 10 mg/kg daily, Time 48 hr) is 0.6044; with iron-loaded dogs (Dog 1M, IV 10 mg/kg daily, Time 72 hr), 0.1732; with iron-loaded dogs (Dog 1M, IV 10 mg/kg daily, Time 96 hr), 0.1762; in the series with iron-loaded dogs (Dog 1M, IV 10 mg/kg daily, Time 120 hr) it was 0.2324; in the series with iron-loaded dogs (Dog 1M, IV 10 mg/kg, Time 4 hr), 0.0970; in the series with iron-loaded dogs (Dog 1M, IV 10 mg/kg, Time 8 hr), 0.0471. Besides, the “Excretion of Fe in urine” value in the series on iron-loaded dogs (Dog 1M, IV 10 mg/kg, Time 24 hr) came out at 0.1136; in the series with iron-loaded dogs (Dog 1M, IV in saline 10 mg/kg (Ca-DTPA Day 1, Zn-DTPA Days 2-5), Time 0 hr (predose)), 0.1297; in the series with iron-loaded dogs (Dog 2F, IV 10 mg/kg daily, Time 48 hr), 0.2686; with iron-loaded dogs (Dog 2F, IV 10 mg/kg daily, Time 72 hr), 0.1623; in the series on iron-loaded dogs (Dog 2F, IV 10 mg/kg daily, Time 96 hr), 0.2884; in the series on iron-loaded dogs (Dog 2F, IV 10 mg/kg daily, Time 120 hr) it was 0.0166. Also, the “Excretion of Fe in urine” value with iron-loaded dogs (Dog 2F, IV 10 mg/kg, Time 4 hr) is reported as 0.0975; with iron-loaded dogs (Dog 2F, IV 10 mg/kg, Time 8 hr) it was 0.0124; in the series with iron-loaded dogs (Dog 2F, IV 10 mg/kg, Time 24 hr) it was 0.0792; in the series on iron-loaded dogs (Dog 2F, IV in saline 10 mg/kg (Ca-DTPA Day 1, Zn-DTPA Days 2-5), Time 0 hr (predose)) it was 0.1158; in the series on iron-loaded dogs (Dog 3M, Oral 10 mg/kg in 20% Labrasol capsules (Ca-DTPA Day 1, Zn-DTPA Days 2-5), Time 0 hr (predose)) it was 0.0947; in the series with iron-loaded dogs (Dog 3M, Oral 10 mg/kg in 20% Labrasol capsules, Time 4 hr), 0.0654. In addition, the “Excretion of Fe in urine” value in the series on iron-loaded dogs (Dog 3M, Oral 10 mg/kg in 20% Labrasol capsules, Time 8 hr) was determined as 0.0153; in the series on iron-loaded dogs (Dog 3M, Oral 10 mg/kg in 20% Labrasol capsules, Time 24 hr), 0.1000; in the series on iron-loaded dogs (Dog 3M, Oral 10 mg/kg in 20% Labrasol capsules, Time 48 hr), 0.1232; in the series with iron-loaded dogs (Dog 3M, Oral 10 mg/kg in 20% Labrasol capsules, Time 72 hr), 0.0506; in the series with iron-loaded dogs (Dog 3M, Oral 10 mg/kg in 20% Labrasol capsules, Time 96 hr) it was 0.1869; in the series with iron-loaded dogs (Dog 3M, Oral 10 mg/kg in 20% Labrasol capsules, Time 120 hr) it was 0.0506. Also, the “Excretion of Fe in urine” value amounted to 0.0314 with iron-loaded dogs (Dog 4F, Oral 10 mg/kg in 20% Labrasol capsules (Ca-DTPA Day 1, Zn-DTPA Days 2-5), Time 24 hr); 0.1162 in the series with iron-loaded dogs (Dog 4F, Oral 10 mg/kg in 20% Labrasol capsules, Time 48 hr); 0.0210 in the series with iron-loaded dogs (Dog 4F, Oral 10 mg/kg in 20% Labrasol capsules, Time 72 hr); 0.0406 in the series on iron-loaded dogs (Dog 4F, Oral 10 mg/kg in 20% Labrasol capsules, Time 96 hr); 0.1089 in the series with iron-loaded dogs (Dog 4F, Oral 10 mg/kg in 20% Labrasol capsules, Time 120 hr). The “Excretion of Fe in urine, Total” value in the series with iron-loaded dogs (Dog 1M, IV 10 mg/kg daily) came out at 1.444; with iron-loaded dogs (Dog 2F, IV 10 mg/kg daily), 0.925; with iron-loaded dogs (Dog 3M, Oral 10 mg/kg in 20% Labrasol capsules), 0.591; in the series on iron-loaded dogs (Dog 4F, Oral 10 mg/kg in 20% Labrasol capsules), 0.318. Also, the “time of highest excretion of Fe in the urine” value with iron-loaded dogs (female Dog 4 (oral group)) was found to be 48 h; in the series on iron-loaded dogs (male Dog 1 (intravenous group)), 48 h; in the series on iron-loaded dogs (the other two dogs (Dog 2 IV, Dog 3 oral)), 96 h. The figures for the “excretion of Fe after oral DTPA as % of the amount excreted by intravenously treated animals” value in the series on iron-loaded dogs (female dogs) and in the series on iron-loaded dogs (male dogs) were 34% and 40%, respectively.

The term Papp denotes the rate of passage across a membrane or cell layer, normalised by area and donor concentration. As for `O=C([O-])CN(CCN(CC(=O)[O-])CC(=O)[O-])CCN(CC(=O)[O-])CC(=O)[O-].[Na+].[Na+].[Na+].[Zn+2]` [Zn-DTPA, zinc diethylenetriaminepentaacetate], the Papp is 2.07e-06 cm/s in series [3]; 2.39e-06 cm/s in the series on rat colon; 1.65e-06 cm/s in series [4]; 4.54e-06 cm/s and 4.28e-06 cm/s in series [5] (Jejunum, 5 mg/ml of drug in HEPES Buffer); 1.908e-05 cm/s in series [5] (jejunum, 5 mg/ml of drug in HEPES Buffer containing 40% Labrasol); 6.34e-06 cm/s in series [5] (jejunum, 100 mg/ml DTPA in HEPES buffer, 5% TPGS + 5% Labrasol). Besides, the Papp in series [5] (jejunum, 100 mg/ml DTPA in HEPES buffer, 5% Tween 80 + 5% Labrasol) was 1.327e-05 cm/s; in series [5] (jejunum, 100 mg/ml DTPA in HEPES buffer, 20% Bile Salt), 1.965e-05 cm/s; in series [5] (jejunum, 100 mg/ml of drug in HEPES Buffer containing 10% Labrasol), 4.21e-06 cm/s; in series [5] (jejunum, 100 mg/ml of drug in HEPES Buffer containing 20% Labrasol), 3.53e-06 cm/s; in series [5] (jejunum, 100 mg/ml of drug in HEPES Buffer containing 40% Labrasol) it was 6.81e-06 cm/s; in series [5] (jejunum, 100 mg/ml of drug in HEPES Buffer only), 5.86e-06 cm/s.
